From ChEMBL document CHEMBL1201862, “PubChem BioAssay data set” (2004)
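Method: 48-hour compound exposure of cells in 96-well plates, five concentrations, linear interpolation of endpoints. GI50: concentration for 50% inhibition of growth.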 Activity calls are given as the source filed them. No stated cut-off is given here; in the data, active = GI50 up to about 1.1 µM and inactive = higher. Where a SMILES comes first, the peptide text is derived from it. The star is where a group is joined. Cbz = O=C(OCc1ccccc1)*

Assays:
Test in all cases: DTP human tumour cell line panel, 48 h
OVCAR-4 = tested on: OVCAR-4
HT-29 = tested on: HT-29
Hs-578T = tested on: Hs-578T
SF-268 = tested on: SF-268
UACC-62 = tested on: UACC-62
HCC 2998 = tested on: HCC 2998
MDA-MB-231 = tested on: MDA-MB-231
BT-549 = tested on: BT-549
DU-145 = tested on: DU-145
OVCAR-8 = tested on: OVCAR-8
HOP-62 = tested on: HOP-62
U-251 = tested on: U-251
PC-3 = tested on: PC-3
OVCAR-5 = tested on: OVCAR-5
COLO 205 = tested on: COLO 205
IGROV-1 = tested on: IGROV-1
SW-620 = tested on: SW-620
RPMI-8226 = tested on: RPMI-8226
NCI-H226 = tested on: NCI-H226
MDA-N = tested on: MDA-N

Measured: GI50

Cn1c(-c2cccc([N+](=O)[O-])c2)[n+](C)c2ccccc21
inactive: OVCAR-4 > 100 µM | HT-29 40.9 µM | Hs-578T > 100 µM | SF-268 87.7 µM | UACC-62 > 100 µM | HCC 2998 > 100 µM | MDA-MB-231 > 100 µM | BT-549 > 100 µM | DU-145 > 100 µM | OVCAR-8 49 µM | HOP-62 > 100 µM | U-251 > 100 µM | PC-3 46.8 µM | OVCAR-5 > 100 µM | COLO 205 17.7 µM | IGROV-1 44.4 µM | SW-620 > 100 µM | RPMI-8226 > 100 µM | NCI-H226 > 100 µM

CCOC(=O)C(NC(=O)NCc1ccc(F)cc1)C(F)(F)F (stereo unspecified)
inactive: HT-29 > 100 µM | MDA-N > 100 µM | Hs-578T > 100 µM | SF-268 > 100 µM | HCC 2998 > 100 µM | BT-549 > 100 µM | OVCAR-8 > 100 µM | U-251 > 100 µM | PC-3 > 100 µM | OVCAR-5 > 100 µM | COLO 205 > 100 µM | IGROV-1 > 100 µM | SW-620 > 100 µM | RPMI-8226 > 100 µM

C/C(=N\O)c1ccc2cc(Br)c3ccccc3c2c1
inactive: OVCAR-4 61.5 µM | HT-29 2.89 µM | MDA-N 15.7 µM | Hs-578T 23.9 µM | SF-268 26.2 µM | UACC-62 17.7 µM | HCC 2998 14.6 µM | MDA-MB-231 15.3 µM | BT-549 27.5 µM | DU-145 39.4 µM | OVCAR-8 24.8 µM | HOP-62 20.2 µM | U-251 14.6 µM | OVCAR-5 11.5 µM | IGROV-1 28 µM | SW-620 23.1 µM | RPMI-8226 17 µM

O=C1c2ccccc2C(=O)N1CC1(C(=O)O)NCCS1(=O)=O (stereo unspecified)
inactive: OVCAR-4 > 100 µM | HT-29 > 100 µM | MDA-N > 100 µM | Hs-578T > 100 µM | SF-268 > 100 µM | UACC-62 > 100 µM | MDA-MB-231 > 100 µM | BT-549 > 100 µM | OVCAR-8 > 100 µM | HOP-62 > 100 µM | U-251 > 100 µM | PC-3 > 100 µM | OVCAR-5 > 100 µM | COLO 205 > 100 µM | IGROV-1 > 100 µM | SW-620 > 100 µM | RPMI-8226 > 100 µM | NCI-H226 > 100 µM

O=C(Nc1ccc2[nH]c(C(=O)N3CC(CCl)c4ccc([N+](=O)[O-])cc43)cc2c1)c1cc2ccccc2o1 (stereo unspecified)
inactive: OVCAR-4 > 1100 µM | HT-29 > 1100 µM | MDA-N > 1100 µM | Hs-578T > 1100 µM | SF-268 > 1100 µM | UACC-62 > 1100 µM | HCC 2998 > 1100 µM | MDA-MB-231 > 1100 µM | BT-549 > 1100 µM | DU-145 > 1100 µM | OVCAR-8 > 1100 µM | HOP-62 > 1100 µM | U-251 > 1100 µM | OVCAR-5 893 µM | COLO 205 > 1100 µM | IGROV-1 > 1100 µM | SW-620 > 1100 µM | RPMI-8226 > 1100 µM | NCI-H226 > 1100 µM

CNc1nc(C(N)=O)c(N)s1
inactive: OVCAR-4 > 100 µM | HT-29 > 100 µM | MDA-N > 100 µM | Hs-578T > 100 µM | SF-268 > 100 µM | UACC-62 > 100 µM | MDA-MB-231 > 100 µM | BT-549 > 100 µM | DU-145 > 100 µM | OVCAR-8 > 100 µM | HOP-62 > 100 µM | U-251 > 100 µM | PC-3 > 100 µM | OVCAR-5 > 100 µM | COLO 205 > 100 µM | IGROV-1 > 100 µM | SW-620 > 100 µM | RPMI-8226 > 100 µM | NCI-H226 > 100 µM

S=C(/N=c1\sc(Nc2ccc(Cl)cc2)nc2sc3c(c12)CCN(N1CCc2c(sc4nc(Nc5ccc(Cl)cc5)s/c(=N\C(=S)Nc5ccc(Cl)cc5)c24)C1)C3)Nc1ccc(Cl)cc1
inactive: HT-29 19 µM | MDA-N 17 µM | Hs-578T > 100 µM | SF-268 > 100 µM | UACC-62 22.4 µM | MDA-MB-231 18.6 µM | BT-549 > 100 µM | DU-145 25.4 µM | OVCAR-8 43.1 µM | HOP-62 36.1 µM | U-251 25.1 µM | PC-3 30.3 µM | OVCAR-5 26.7 µM | COLO 205 57.9 µM | IGROV-1 35.7 µM | SW-620 38.8 µM | NCI-H226 78.2 µM

N#Cc1nc(C2CCC(=O)O2)oc1N (stereo unspecified)
inactive: HT-29 > 100 µM | MDA-N > 100 µM | Hs-578T > 100 µM | SF-268 > 100 µM | UACC-62 > 100 µM | MDA-MB-231 > 100 µM | BT-549 > 100 µM | DU-145 > 100 µM | OVCAR-8 > 100 µM | HOP-62 > 100 µM | U-251 > 100 µM | PC-3 > 100 µM | OVCAR-5 > 100 µM | COLO 205 > 100 µM | IGROV-1 > 100 µM | SW-620 > 100 µM | RPMI-8226 > 100 µM | NCI-H226 > 100 µM

CCCCCCCCCCCCCCCCOP(=O)(O)OP(=O)(O)OCC1OC(n2ccc(N)nc2=O)CC1O (stereo unspecified)
inactive: OVCAR-4 > 100 µM | HT-29 > 100 µM | MDA-N > 100 µM | Hs-578T > 100 µM | SF-268 > 100 µM | UACC-62 > 100 µM | HCC 2998 > 100 µM | MDA-MB-231 > 100 µM | BT-549 > 100 µM | OVCAR-8 > 100 µM | HOP-62 > 100 µM | U-251 > 100 µM | PC-3 > 100 µM | OVCAR-5 > 100 µM | COLO 205 > 100 µM | IGROV-1 > 100 µM | SW-620 > 100 µM | RPMI-8226 > 100 µM | NCI-H226 > 100 µM

CN(C)CCCNc1c2ccccc2[n+]([O-])c2ccccc12
inactive: OVCAR-4 27.1 µM | HT-29 7.06 µM | MDA-N 68.7 µM | Hs-578T 22.6 µM | SF-268 74.6 µM | UACC-62 > 100 µM | MDA-MB-231 63.4 µM | BT-549 19.1 µM | DU-145 > 100 µM | OVCAR-8 41.9 µM | HOP-62 43.5 µM | U-251 62.8 µM | PC-3 46.5 µM | OVCAR-5 38.8 µM | COLO 205 13.3 µM | IGROV-1 37.3 µM | SW-620 39.9 µM | RPMI-8226 46.7 µM | NCI-H226 22 µM

CCOC(=O)C(CC(=O)OC)NC(=O)C(CC(=O)OC)NC(=O)C(CC(=O)OC)NC(=O)C(CC(=O)OC)NC(=O)OCc1ccccc1 (stereo unspecified) (Cbz-D(OMe)D(OMe)D(OMe)D(OMe)-OEt; configuration not given here)
inactive: HT-29 > 100 µM | MDA-N > 100 µM | Hs-578T > 100 µM | UACC-62 > 100 µM | HCC 2998 > 100 µM | MDA-MB-231 > 100 µM | BT-549 > 100 µM | OVCAR-8 > 100 µM | HOP-62 > 100 µM | U-251 > 100 µM | PC-3 > 100 µM | OVCAR-5 > 100 µM | COLO 205 > 100 µM | IGROV-1 > 100 µM | SW-620 > 100 µM | RPMI-8226 > 100 µM | NCI-H226 > 100 µM
